Results: US11000495B2, “Topical diclofenac sodium compositions” (Novartis Consumer Health S.A., priority 2014, dated 2021)
Structures can show the parent of a compound that is named as a salt.

Legend:
[1] = Solubility of diclofenac sodium 2 wt % in IPA/PG/water solvent mixtures by UV absorbance; assay type: physicochemical; settings: 2% diclofenac sodium in IPA/PG/water, 25° C., systems shown as circles in FIG. 1
Procedure: FIG. 1 is a ternary diagram of the solubility of diclofenac sodium, 2 wt %, at 25° C., as determined by UV absorbance, in solvent mixtures comprising isopropyl alcohol (bottom axis), propylene glycol (left axis), and water (right axis) in varying amounts. The data points represent solvent mixtures which are found to be at or above (circles), or below (squares), the target (i.e. 2%) solubility. FIG. 1 illustrates solubility studies of such solvent systems comprising 2% diclofenac sodium in isopropyl alcohol (IPA), propylene glycol (PG) and water. […] (Incomplete solubilization is represented by squares.)

[2] = cited from earlier work

Row | solubility of the salt in solvent systems [1] | Structure (SMILES) | kinetic solubility ([2]; anhydrous form, Llinas et al.) [µg/mL] | water solubility ([2]; acid form, Fini et al.)
1 | Complete solubility | O=C(O)Cc1ccccc1Nc1c(Cl)cccc1Cl [diclofenac sodium, 2-[(2,6-dichloro-phenyl)amino]benzeneacetic acid, (mono) sodium salt] | 40 ± 5 | –
2 | – | O=C(O)Cc1ccccc1Nc1c(Cl)cccc1Cl [Acidic diclofenac, diclofenac] | – | very low
